Experiment [1] deals with fresh plasma cell leukemia tumor cells. The experiment can be described thus: ADCC set up II, plasma cell leukemia tumor cells. Format: cell-based, human. The settings on record: in words. The procedure:
Human blood from human volunteers (university Erlangen, Erlangen, Germany) was diluted twice in RPMI 1640 and blood cells were layered on Ficoll (Lymphocyte Separation Medium […], 710 g, RT, 20 min; BioWhittaker, Cambrex Bio Science Verviers, Verviers, Belgium, cat. 17-829E, lot no. 0148 32). Peripheral blood mononuclear cells (MNCs) were collected from the interphase, washed and resuspended in RPMI 1640 culture medium supplemented with 10% FCS, 2 mM L-glutamine, 5 U/ml penicillin, 50 μg/ml streptomycin (all derived from BioWhittaker) to which 25 mM HEPES (BioWhittaker) was added.
Target B-cells (fresh plasma cell leukemia tumor cells, JK6L and AMO-1 B-cell lines, obtained from Dr. T. Valerius, University of Erlangen, Erlangen, Germany) were labeled with 20 μCi ^51Cr (Amersham Biosciences, Uppsala, Sweden) for 2 hours. After extensive washing in RPMI-10, cells were adjusted to 1×10^5 cells/ml. […] After incubation (3 hr, 37° C.), assays were stopped by centrifugation, and 51Cr release from triplicates was measured in counts per minute (cpm) in a scintillation counter. Percentage of cellular cytotoxicity was calculated using the following formula: […]
with maximal ^51Cr release determined by adding perchloric acid (3% final concentration) to target cells, and basal release was measured in the absence of sensitizing antibodies and effector cells.

The subject of another experiment is Daudi-luc cells. The experiment can be described thus: Complement-dependent cytotoxicity of Daudi-luc cells. Format: cell-based. The following applies: for CDC-mediated lysis of Daudi-luc cells: in words. The procedure:
After harvesting and counting of Daudi-luc cells, the viability of the cells should be ≥90%. After washing (PBS), cells are resuspended at 2.0×10^6 cells/ml in RPMI-B (RPMI supplemented with 1% BSA). Thereafter, cells are put in 96-well round-bottom plates at 1×10^5 cells/well (50 μl/well). Then, 50 μl antibodies is added to the wells (final concentration range between 0-100 μg/ml (three-fold dilutions in RPMI-B)). After incubation (RT, 15 min), 11 μl of pooled human serum (pool of 18 healthy donors) was added to each well (37° ° C., 45 min). Wells were resuspended once and 120 μl was transferred to FACS tubes (Greiner). Then, 10 μl propidium iodide (PI; Sigma-Aldrich Chemie B.V.) was added (10 μg/ml solution) to this suspension. Lysis was detected by flow cytometry (FACScalibur™, Becton Dickinson, San Diego, CA, USA) by measurement of the percentage of dead cells (corresponds to PI-positive cells).

The test system of the next experiment is CHO-CD38 cells. The experiment can be described thus: Complement-dependent cytotoxicity of CHO-CD38 cells. In kind it is cell-based. The settings on record: for CDC-mediated lysis of CHO-CD38 cells: in words.
In experiment [2] the test system is PBMCs. The experiment can be described thus: Induction of proliferation of PBMC. Format: cell-based, human. The following applies: 1.1-30 μg/ml, 3H-thymidine incorporation, 10 donors. On the procedure: -003, -005 and -024 were tested in an assay essentially as described in Ausiello et al., Tissue antigens 56, 538-547 (2000). Briefly, PBMCs from healthy donors were cultured at 1×10^5 cells/well in flat bottom 96-well plates in the presence of antibodies (final concentration: 1.1-3.3-10-30 μg/ml) in 200 μl RPMI^++. Stimulation of cells with IL-15 (at 333 ng/ml; Amgen Inc., Thousand Oaks, CA, USA) was used as positive control. After a 4 day incubation at 37° C., 30 μl ^3H-thymidine (16.7 μCi/ml) was added, and culture was continued O/N. ^3H-thymidine incorporation was assessed using a […] (Packard Instruments, Meriden, DT, USA), according to the manufacturer's instructions. Data are shown as the mean cpm (±SEM) of PBMCs obtained from 10 donors.
Background: Uptake of a labelled nucleoside into DNA is a usual measure of proliferation.

Experiment [3] concerns PBMCs. The experiment can be described thus: Induction of IL-6 release by PBMC. Format: cell-based, human. The settings on record: 20 μg/ml antibody and 10 ng/ml LPS, 7 donors. The procedure:
(§1) -003, -005 and -024 were tested in an assay as described in Ausiello et al., Tissue antigens 56, 538-547 (2000). Briefly, PBMCs were cultured at 1×10^6 cells/well in 48-well plates in the presence of 20 μg/ml of antibodies and 10 ng/ml LPS (Sigma-Aldrich Chemie, Zwijndrecht, The Netherlands) in 500 μl RPMI^++. After an O/N incubation at 37° C., supernatant was harvested and stored at −20° C. The IL-6 concentration was assessed by ELISA (IL-6 ELISA kit, U-CyTech Biosciences, Utrecht, The Netherlands) according to the manufacturer's instructions. Data are shown mean concentration in pg/ml (±SEM) from 7 donors.

In experiment [4] the test system is PBMCs. The experiment can be described thus: Induction of release of IFN-γ by PBMC. Format: cell-based, human. The following applies: 20 μg/ml antibody and 1 μg/ml OKT-3, 9 donors. On the procedure: as §1, with “and 1 μg/ml OKT-3 (Sanquin, Amsterdam,” for “and 10 ng/ml LPS (Sigma-Aldrich Chemie, Zwijndrecht,”, “The IFN-γ” for “The IL-6”, “ELISA (IFN-γ” for “ELISA (IL-6”, “from 9” for “from 7”

The mark [5] stands for this setting: CDC, Daudi-luc cells (n = 2), Table 10.
[6] abbreviates: CDC, CHO-CD38 cells (n = 2), Table 10.

Data on two molecules can be found in patent US20240165226A1, “COMBINATION TREATMENT OF CD38-EXPRESSING TUMORS” (GENMAB A/S, priority 2006, published 2024).

“Also recorded” adds a separate entry of the source.

By EC50 is commonly meant the concentration at which the effect is half-maximal. The low end stands for a more potent agent, the high end for a less potent agent.

Consider “-005: human monoclonal IgG1 anti-CD38 antibody, VL region SEQ ID No:12 and VH region SEQ ID No:17”, for which the “ADCC of plasma cell leukemia primary tumor cells” value in experiment [1] was “induce ADCC”. The maximum lysis in the experiment on Daudi-luc cells (CDC) is on record as about 60%. In addition, the “maximal lysis compared to TH3079” value in the experiment on Daudi-luc cells (CDC of Daudi-luciferase cells) is given as 2-3 times higher. Moreover, in the experiment with Daudi-luc cells (setting [5]), the “% Max. lysis” value is recorded as 70.5 ± 7.78% and the half-maximal effective concentration (EC50) is 0.39 ± 0.00 µg/mL. Also, in the experiment with Daudi-luc cells (CDC, Table 3), the “EC50 Daudi-luc” value stood at 0.33 µg/mL. The “CDC-mediated lysis of Daudi-luc cells” value with Daudi-luc cells is “lysis of Daudi-luc cells is induced”. Also, in the experiment on CHO-CD38 cells (setting [6]), the “% Max. lysis” value is on record as 76.5 ± 3.54% and the EC50 stood at 0.15 ± 0.007 µg/mL. Besides, the “EC50 CD38-CHO” value in the experiment with CHO-CD38 cells (CDC, Table 3) is 0.14 µg/mL. Moreover, the “CDC-mediated lysis of CHO-CD38 cells” value with CHO-CD38 cells is on record as “lysis is induced; also recorded: induce CDC-mediated lysis”. Besides, in the experiment on PBMCs [2], the “proliferation of PBMCs” value was “do not induce significant proliferation”. Moreover, in the experiment with PBMCs [3], the “release of IL-6” value was “does not induce release of significant IL-6 levels”. In addition, the “release of IFN-γ” value with PBMCs [4] is given as “does not induce release of detectable IFN-γ levels”.

B1: -024: human monoclonal IgG1 anti-CD38 antibody, VL region SEQ ID No:22 and VH region SEQ ID No:27 (antibody, listed as Homo sapiens, V domains shown)
VH: EVQLVQSGAEVKKPGESLKISCKGSGYSFSNYWIGWVRQMPGKGLEWMGIIYPHDSDARYSPSFQGQVTFSADKSISTAYLQWSSLKASDTAMYYCARHVGWGSRYWYFDLWGRGTLVTVSS
VL: EIVLTQSPATLSLSPGERATLSCRASQSVSSYLAWYQQKPGQAPGLLIYDASNRASGIPARFSGSGSGTDFTLTISSLEPEDFAVYYCQQRSNWPLTFGGGTKVEIK
For B1, in experiment [1], the “ADCC of plasma cell leukemia primary tumor cells” value is reported as “induce ADCC”. Moreover, the “CDC-mediated lysis of Daudi-luc cells” value in the experiment with Daudi-luc cells is reported as “does not induce CDC”. Also, the “CDC-mediated lysis of CHO-CD38 cells” value with CHO-CD38 cells is given as “lysis is induced”. In addition, in the experiment with PBMCs [2], the “proliferation of PBMCs” value is reported as “did not induce significant proliferation”. In the experiment on PBMCs [3], the “release of IL-6” value is listed as “did not induce release of significant IL-6 levels”. Also, in the experiment with PBMCs [4], the “release of IFN-γ” value is given as “did not induce release of significant IFN-γ levels”.
